PMC9241669, “Allantodapsone is a Pan-Inhibitor of Staphylococcus aureus Adhesion to Fibrinogen, Loricrin, and Cytokeratin 10” (Microbiology Spectrum, 2022)
In brackets after ≈: the same amount, converted by molar mass. Several values for one entry are separate records, joined by “and”; a condition that tells them apart may be missing. Equal values may be shown once. Entries after “also recorded” stand apart in the source; their conditions may differ.

Legend:
S. aureus Newman [1] = test: Adhesion of S. aureus Newman to immobilized fibrinogen (crystal violet); type: cell-based, Staphylococcus aureus; conditions: for activity of individual fragments of allantodapsone: assay not specified; for inhibition of adhesion to fibrinogen: S. aureus Newman, stationary and exponential phase, compounds screened at 70 μM (Fig. 2)
Procedure: FIG 1 Allantodapsone inhibits S. aureus Newman adhesion to fibrinogen. Dose response curves for S. aureus Newman (A), L. lactis ClfA (B), and L. lactis ClfB (C) adhesion to fibrinogen. Fibrinogen was used to coat plates at 4°C overnight at 10 μg/mL. Wells were washed with PBS and blocked with 1% BSA. Washed bacteria (OD600 of 1) were mixed with the relevant concentration of allantodapsone or vehicle control (DMSO) for 5 min, and added to the wells, incubating for 2 h at 37°C. Adherent cells were washed, fixed, and stained with crystal violet, and wells further washed. The dye was dissolved in acetic acid and the absorbance measured at 570 nm. IC50 values were generated using GraphPad Prism 9.0 GraphPad software, San Diego, CA. Data are representative of three experiments with error presented as SEM.
(§1) FIG 2 Allantodapsone inhibits S. aureus adhesion to fibrinogen. (A) S. aureus Newman stationary phase and (B) exponential phase. (C) S. aureus SH1000 stationary phase and (D) exponential phase bacteria. Fibrinogen was used to coat plates at 4°C overnight at 10 μg/mL. Wells were washed with PBS and blocked with 1% BSA. Washed bacteria (OD600 of 1) were mixed with the relevant concentration of allantodapsone or vehicle control for 5 min, and added to the wells, incubating for 2 h at 37°C. Adherent cells were washed, fixed, and stained with crystal violet, and wells further washed. The dye was dissolved in acetic acid and the absorbance measured at 570 nm. Compounds were screened at a concentration of 70 μM and compared to their vehicle control. Statistical analysis was carried out using repeated measures ANOVA followed by multiple comparisons Dunnett’s tests using GraphPad PRISM. **, P ≤ 0.01; ***, P ≤ 0.001; ****, P ≤ 0.0001 (n = 3).
(§2) Adhesion assays were carried out according to Hartford et al. ([37]). Briefly, plates were coated with 10 μg/mL fibrinogen (Calbiochem, Darmstadt, Germany) or 20 μg/mL fibronectin (Sigma-Aldrich, Ireland) for 2 h at 37°C or for 16 h at 4°C. Plates were blocked with 1% BSA at 37°C for 1 h and washed 3 times in PBS. Washed bacteria were incubated at 37°C for 2 h. Adherent bacteria were washed three times in PBS and fixed in 5–9% formaldehyde at room temperature for 30 min. Wells were washed three times in PBS and stained using 5% crystal violet for 20 min. Wells were washed three times in PBS, and the crystal violet solubilized using 5% acetic acid. Plates were read at 570 nm on a Wallac Victor2, (Shelton, CT, USA). The minimum adhesion inhibitory concentration (MAIC) was determined as the concentration inhibiting greater than 90% bacterial adhesion.
(§3) Compounds were added to the bacterial suspension prior to addition to the wells. In each experiment, vehicle controls were prepared using the same volume of vehicle for the matching test compound.

S. aureus Newman [2] = test: Adhesion of S. aureus Newman to GST-L2v loricrin; type: cell-based, Staphylococcus aureus; conditions: for activity in adhesion of S. aureus Newman to L2v loricrin: screened at 80 μM (Fig. 4D)
Procedure: FIG 4 Allantodapsone inhibits S. aureus adhesion to loricrin and cytokeratin 10. Dose-response curve for adhesion of S. aureus Newman to GST-L2v loricrin (A) and CK10 (C). (B) Inhibition of recombinant ClfB N2N3 binding to immobilized GST-L2v loricrin by allantodapsone. (D) Inhibition of S. aureus Newman adhesion to GST-L2v loricrin by allantodapsone derivatives. Purified GST-L2v or CK10 were used to coat plates at 4°C overnight. Wells were washed with PBS and blocked with 1% BSA. Washed bacteria (OD600 of 1) were mixed with allantodapsone or vehicle control before being added to the wells and incubated for 2 h at 37°C. Adherent cells were washed, fixed, and stained with crystal violet, and wells further washed. The dye was dissolved in acetic acid, and the absorbance measured at 570 nm. GST-L2v was used at 20 μM in A and D. CK10 was used at 10 nM. Test compounds were incubated with bacteria at 80 μM and normalized to the DMSO vehicle control in D. For data presented in B, recombinant ClfB was incubated with allantodapsone (100 μM) or DMSO (1%) for 30 min prior to being added to wells coated with recombinant GST-L2v loricrin. Bound ClfB was detected using peroxidase-conjugated anti-His monoclonal antibody in an ELISA. The graphs shown are representative of three independent experiments. Statistics were carried out using one-way ANOVA followed by the Dunnett’s posttest using GraphPad Prism version 9.0.
as §2

S. aureus SH1000 = test: Adhesion of S. aureus SH1000 to immobilized fibrinogen (crystal violet); type: cell-based, Staphylococcus aureus; conditions: S. aureus SH1000, stationary and exponential phase; compounds screened at 70 μM (Fig. 2)
Procedure: as §1, §2, §3

S. aureus Newman [3] = test: Antimicrobial assay (bacterial growth in BHI broth); type: cell-based, Staphylococcus aureus; conditions: for MIC90: Staphylococcus aureus, S. aureus Newman, overnight growth in BHI broth; for inhibition of bacterial growth (words): overnight in BHI broth, allantodapsone up to 100 μM, versus vehicle control
Procedure: S. aureus was grown in BHI broth shaking overnight at 37°C in the presence of a range of concentrations of allantodapsone, dapsone, or ampicillin as control. Absorbance was measured the following day at 570 nm. Data have been normalized to the relevant vehicle control (1% DMSO for allantodapsone and dapsone and water for ampicillin). […] Error bars represent SEM.
S. aureus was grown overnight in BHI broth at 37°C in shaking incubator. Wells were inoculated with 10 μL of overnight culture into 90 μL of broth containing the test compounds or controls. A growth control containing no agents was used (positive control), a sterility control of broth alone was included, and vehicle controls were included for each test compound. Plates were incubated overnight at 37°C and absorbance measured at 570 nm the following day using a Wallac Victor2, (Shelton, CT, USA).

MSSA isolates = conditions: cited from earlier work

Row | SMILES | activity of individual fragments of allantodapsone (S. aureus Newman [1]) | activity in adhesion of S. aureus Newman to L2v loricrin (S. aureus Newman [2]) | inhibition of adhesion to fibrinogen (S. aureus SH1000) | inhibition of adhesion to fibrinogen (S. aureus Newman [1]) | MIC90 (S. aureus Newman [3]) | inhibition of bacterial growth (words) (S. aureus Newman [3]) | other results
1 | O=C1NC(=O)C(=NO)C(=O)N1 [violuric acid] | did not show any activity |  |  |  |  |  | 
2 | N=C(N)Nc1ccc(Oc2cccc(NC(=N)N)c2)cc1 [Compound 10] |  | loss of activity |  |  |  |  | 
3 | O=C1NC(=O)C(=O)C(=O)N1 [alloxan] | did not show any activity |  | Neither dapsone nor alloxan had any inhibitory activity | Neither dapsone nor alloxan had any inhibitory activity; also recorded: did not have any inhibitory effect |  |  | 
4 | N=C(N)Nc1ccc(Oc2cccc(NC(=O)c3ccc(Cl)c(C(F)(F)F)c3)c2)cc1 [Compound 11] |  | demonstrated activity; also recorded: maintained some activity |  |  |  |  | adhesion to L2v loricrin, normalized to DMSO vehicle control (S. aureus Newman [2]; test compound at 80 μM, S. aureus Newman): 61.3% ± 7
5 | Nc1ccc(S(=O)(=O)c2ccc(N)cc2)cc1 [dapsone] | did not show any activity |  | Neither dapsone nor alloxan had any inhibitory activity | Neither dapsone nor alloxan had any inhibitory activity; also recorded: did not have any inhibitory effect | 0.3 µM and 0.1 µg/mL | inhibited growth | MIC90 previously determined in MSSA strains (MSSA isolates; MSSA strains): 128 µg/mL (≈ 515 µM); range printed in parentheses after MIC90 in MSSA strains (MSSA isolates; MSSA strains): 32 to 256 µg/mL
6 | CC1(C)S[C@@H]2[C@H](NC(=O)[C@H](N)c3ccccc3)C(=O)N2[C@H]1C(=O)O [ampicillin] |  |  |  |  | 0.03 µM and 0.01 µg/mL | pronounced inhibitory effect on growth | MIC90 reported for S. aureus isolates (MSSA isolates; microdilution method in MSSA isolates): 0.015 to 4 µg/mL
